From US6492353B1, “1,3-dihydroxy-20,20-cycloalkyl-vitamin D3analogs” (Syntex LLC, priority 1997, dated 2002)
pIC50: −log10 of the molar value. Where “and” joins values, the source holds several entries; their conditions need not be identical. Identical values can stand only once.

Experiments:
[1] = tested on: ovariectomized (Ovx) rats; experiment: Bone anabolism in the ovariectomized rat; type: in vivo; parameters: Urine Calcium/Creatinine (6th Week): unit not given here; conditions: for Whole Femur BMD: weeks 3-6 post-ovariectomy
Text: Three month old rats are ovariectomized (Ovx) and administered either 1,25-dihydroxy vitamin D3 (vit. D in Table) or one of the compounds of the present invention once a day by mouth starting at 3 weeks post-ovariectomy and continuing until final sacrifice at 6 weeks postovariectomy. Control groups, both sham (rats that were not ovariectomized) and Ovx, received vehicle only. Blood and urine samples were collected twice, at 4 weeks post-ovariectomy and again at the 6 week mark and the amount of serum and urine calcium was determined. The final femoral calcium was determined upon sacrifice 6 weeks post-ovariectomy.
The bone mineral density of the right femur was determined by using a High Resolution Software Package on a QDR-1000W Bone Densitometer™ (Hologic, Walthan, Mass.). The animals were scanned by placing them on a scanning block in a supine position such that the right leg was perpendicular to the main body and the tibia was perpendicular to the femur. The increase in the bone mineral density and the amount of calcium in the urine and the serum for some of the compounds of this invention in this assay are given in the table below: […]

[2] = tested on: MCF-7 cells; experiment: Cell proliferation assay in MCF-7 breast cancer cells; type: cell-based; conditions: Homo sapiens, MCF7, 168 h; MCF-7, 7 days of culture with analog, Coulter count; read-out: IC50, concentration causing 50% reduction in MCF-7 cell growth in culture
Description: MCF-7 cells are human mammary carcinoma cells that are positive for estrogen receptors. The potential activity of vitamin D3 analogs against breast cancer was assessed from inhibition of proliferation of MCF-7 cells in culture.
MCF-7 cells were plated at 9000 cells/well in 24-well plates and incubated at 37° C. in 5% CO2/95% air in Dulbecco's Modified Eagle Medium containing 10% fetal bovine serum, 700 nM insulin, 2 mM glutarnine, 0.1 mM MEM non-essential amino acids and 1 mM sodium pyruvate. Stock solutions of vitamin D3 analogs were prepared at a concentration of 10 mM in absolute ethanol and stored at −20° C. under argon. Four days after plating, the number of MCF-7 were counted by removing the medium in 8 wells, rinsing the cells with 0.5 ml PBS without Ca/Mg and then incubating the cells with 0.3 ml of trypsin-EDTA. After 15 min., the trypsinization was stopped by adding 0.3 ml of medium. 0.2 ml aliquot was transferred from each well into dilu-vials containing 10 ml isoton and the number of cells were counted on Coulter Counter™ (Coulter, Miami, Fla.).
MCF-7 cells in the remaining wells were refed with either control medium or medium containing varying concentrations of the vitamin D3 analog. After a further 7 days of culture, the number of MCF-7 cells in each well was assessed by removing the medium, rinsing the cells with 0.5 ml PBS without Ca/Mg and then incubating the cells with 0.5 ml of trypsin-EDTA for 15 min. The trypsinization was stopped by adding 0.5 ml of medium and 0.1 ml aliquot from each well was transferred into dilu-vials containing 10 ml isoton and the number of cells were counted on Coulter Counter™.

[3] = tested on: ZR-75 cells; experiment: Cell proliferation assay in ZR-75 breast cancer cells (MTT); type: cell-based; conditions: Homo sapiens, ZR75, 240 h, ZR-75, 10 days of culture with analog, read-out: IC50, concentration corresponding to half-maximal reduction in 570 nm absorbance
Description: ZR-75 cells are human mammary carcinoma cells that are positive for estrogen receptors. The potential activity of vitamin D3 analogs against breast cancer was assessed from inhibition of proliferation of ZR-75 cells in culture.
ZR-75 cells were plated at 12,500 cells/well in 24-well plates and incubated at 37° C. in 5% CO2/95% air in RPMI medium containing 10% fetal bovine serum and 2 mM L-glutamine. Stock solutions of vitamin D3 analogs were prepared at a concentration of 10 mM in absolute ethanol and stored at −20° C. under argon. One day after plating, ZR-75 cells were refed with either control medium or medium containing varying concentrations of the vitamin D3 analog.

[4] = tested on: rats with secondary hyperparathyroidism due to renal failure; experiment: Secondary hyperparathyroidism in the rat renal insufficiency model (7/8 nephrectomy); type: in vivo; conditions: 7/8 nephrectomized rats, 0.1 μg/kg/day oral, seven days; for PTH T=1-T=0: change in serum PTH; for Final Ca Levels: serum calcium
Description: Female sprague Dawley rats were anesthetized, their right kidney removed and 2-3 branches of the left renal artery were ligated to achieve 7/8 nephrectomy. They were placed on a high phosphorous diet (0.06% Ca and 0.08 phosphorous). Approximately 3-6 weeks after surgery, rats were bled to screen serum PTH levels and rats with PTH levels between 100-500 pg/ml were selected for the study.
There was a pre-bleed (T=0) and each group was dosed daily for seven days by oral […] with either the compound of Formula (I) (0.1 μg/kg/day), vehicle control or 1,25-(OH)2 vitamin D3 positive control. Compounds were predissolved in ethanol and diluted with vehicle (Miglyol 812) followed by evaporation of the ethanol.
After the last day of dosing, the animals were bled again (T=1) and sacrificed. Serum PTH assays were done with Nichols Institute Diagnostic Kit #40-2240. Serum calcium assays were done with Sigma Diagnostic Kit #587 with o-cresophthalein. Serum creatinine assays were done with Sigma Diagnostic Kit #1600-320 with ammonium molybdate.

[5] = tested on: women with postmenopausal osteoporosis; conditions: cited from earlier work

Row | SMILES | pIC50 [2] | pIC50 [3] | Final Ca Levels [4] [mg/dL] | PTH T=1-T=0 [4] [pg/mL] | further results
1 | C=C1/C(=C\C=C2/CCC[C@]3(C)[C@@H]([C@H](C)CCCC(C)(C)O)CC[C@@H]23)C[C@@H](O)C[C@@H]1O [1,25-di(OH)-cholecalciferol, 1,25-dihydroxy-cholecalciferol, reference compound] | 6.83 | 7.89 | 9.75 | -18 | Serum Calcium (6th Week) ([1]; 0.200 μg/kg/day by mouth, listed as Vit D): 9.49 mg/dL and 10.65 mg/dL; lower rate of new vertebral fractures compared with elemental calcium 1000 mg/day ([5]; mild to moderate postmenopausal osteoporosis, 0.25 microgram twice daily, after 3 years): 3 fold; tolerability ([5]; overall): well tolerated; steroid-induced bone loss ([5]; patients starting prednisone or prednisolone, 0.5 to 1.0 micrograms/day plus calcium 1000 mg/day, with or without calcitonin): prevented steroid-induced bone loss
2 | C[C@]12CCC/C(=C\C=C3C[C@@H](O)C[C@H](O)C3)[C@@H]1CC[C@@H]2C1(CC#CC(O)(C(F)(F)F)C(F)(F)F)CC1 [Cpd #4, 1,25-dihydroxy-23-yne-26,27-hexafluoro-20,21,28-cyclopropyl-19-norcholecalciferol] | 10.30 | 9.82 | 10.1 | -137 | Serum Calcium (6th Week) ([1]; 0.005 μg/kg/day by mouth): 8.94 mg/dL; Urine Calcium/Creatinine (6th Week) ([1]; 0.005 μg/kg/day by mouth): 0.60; Whole Femur BMD ([1]; 0.005 μg/kg/day by mouth): 0.241 g/cm²
3 | C=C1/C(=C\C=C2/CCC[C@]3(C)[C@@H](C4(C/C=C\C(O)(C(F)(F)F)C(F)(F)F)CC4)CC[C@@H]23)C[C@@H](O)C[C@@H]1O [compound 5, 1,25-dihydroxy-23-(Z)-ene-26,27-hexafluoro-20,21,28-cyclopropyl-cholecalciferol] | 10.52 | 10.00 | – | – | –

Continued by rising pIC50 [2], values first:

Row | pIC50 [2] | pIC50 [3] | Final Ca Levels [4] [mg/dL] | SMILES | PTH T=1-T=0 [4] [pg/mL] | further results
4 | 9.30 | – | – | C=C1/C(=C\C=C2/CCC[C@]3(C)[C@@H](C4(CC#CC(C)(C)O)CC4)CC[C@@H]23)C[C@@H](O)C[C@@H]1O [compound 1, 1,25-dihydroxy-23-yne-20,21,28-cyclopropyl-cholecalciferol] | – | –
5 | 9.52 | 9.05 | – | CC(C)(O)C#CCC1([C@H]2CC[C@H]3/C(=C/C=C4C[C@@H](O)C[C@H](O)C4)CCC[C@]23C)CC1 [compound 2, 1,25-dihydroxy-23-yne-20,21,28-cyclopropyl-19-nor-cholecalciferol] | – | –
6 | 10.52 | 11.00 | 10.7 | C=C1/C(=C\C=C2/CCC[C@]3(C)[C@@H](C4(CC#CC(O)(C(F)(F)F)C(F)(F)F)CC4)CC[C@@H]23)C[C@@H](O)C[C@@H]1O [Cpd #3, 1,25-dihydroxy-23-yne-26,27-hexafluoro-20,21,28-cyclopropyl-cholecalciferol] | -70 | Serum Calcium (6th Week) ([1]; 0.010 μg/kg/day by mouth): 10.25 mg/dL; Urine Calcium/Creatinine (6th Week) ([1]; 0.010 μg/kg/day by mouth): 0.83; Whole Femur BMD ([1]; 0.010 μg/kg/day by mouth): 0.24 g/cm²
7 | 10.52 | 10.00 | – | C[C@]12CCC/C(=C\C=C3C[C@@H](O)C[C@H](O)C3)[C@@H]1CC[C@@H]2C1(C/C=C\C(O)(C(F)(F)F)C(F)(F)F)CC1 [compound 6, 1,25-dihydroxy-23-(Z)-ene-26,27-hexafluoro-20,21,28-cyclopropyl-19-norcholecalciferol] | – | –
